Here are results for 5 compounds from BindingDB's records for doi:10.1002/prot.21207 (The Procter & Gamble Pharmaceuticals, 2007).

The target in the assay is T1, Methionine aminopeptidase (Escherichia coli (strain K12), UniProt P0AE18).
T1 sequence (P0AE18 whole entry): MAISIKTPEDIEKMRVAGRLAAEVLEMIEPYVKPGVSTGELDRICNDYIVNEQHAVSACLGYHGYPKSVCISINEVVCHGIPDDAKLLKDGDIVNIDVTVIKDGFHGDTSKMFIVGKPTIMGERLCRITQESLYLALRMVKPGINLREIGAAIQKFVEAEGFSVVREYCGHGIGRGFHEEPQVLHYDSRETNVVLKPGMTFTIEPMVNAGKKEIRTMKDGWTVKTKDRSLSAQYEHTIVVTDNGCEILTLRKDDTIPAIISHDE
Kind of assay: EcMAP Enzyme Inhibition Assay. The conditions noted are these: pH 7.5; 30 °C. Here is the method: The inhibitory activity of a compound toward EcMAP was measured by incubating the compound at various concentrations in the presence of the enzyme and the peptide substrate MGMM. Activity can be determined based on the amount of GMM produced or the amount of MGMM consumed. The integrated area of the tripeptide or tetrapeptide peak was compared to a calibration curve generated by running HPLC chromatograms of known concentrations of the polypeptides.
By IC50 is commonly meant the concentration needed to halve the response being measured. The low end stands for greater potency, the high end for weaker potency. In turn, `N=c1nnc(=N)c1=NNc1cccc(C(=O)O)c1O` [3-[(E)-2-(5-amino-3-imino-3H-pyrazol-4-yl)diazen-1-yl]-2-hydroxybenzoic acid] returned an IC50 of 2 µM.
In the case of `COc1ccc(NN=c2c(=N)nnc2=N)cc1` [3-imino-4-[(E)-2-(4-methoxyphenyl)diazen-1-yl]-3H-pyrazol-5-amine], the IC50 is 1.5 µM.
For `Cc1c(Cl)cccc1NN=c1c(=N)nnc1=N` [4-[(E)-2-(3-chloro-2-methylphenyl)diazen-1-yl]-3-imino-3H-pyrazol-5-amine] the value was 0.55 µM; for `N=c1nnc(=N)c1=NNc1cccc(F)c1` [4-[(E)-2-(3-fluorophenyl)diazen-1-yl]-3-imino-3H-pyrazol-5-amine], 0.55 µM.
For `N=c1nnc(=N)c1=NNc1ccc(Cl)cc1` [4-[(E)-2-(4-chlorophenyl)diazen-1-yl]-3-imino-3H-pyrazol-5-amine] the value was 1.25 µM.
